Experimental data published in ChEMBL document CHEMBL5131397, “Discovery and Optimization of Pyrazole Amides as Inhibitors of ELOVL1” (J Med Chem, 2021).
Activity calls are given as the source filed them. No cut-off for these calls is given here.

Assays:
[1] = biological target: T1, Very long chain fatty acid elongase 1 (Homo sapiens, UniProt Q9BW60); experiment: Inhibition of ELOVL1 in human HEK293 cells assessed as reduction of C26:0 VLCFA synthesis incubated for 48 hrs by cellular assay; assay type: cell-based
T1 sequence (Q9BW60 whole entry): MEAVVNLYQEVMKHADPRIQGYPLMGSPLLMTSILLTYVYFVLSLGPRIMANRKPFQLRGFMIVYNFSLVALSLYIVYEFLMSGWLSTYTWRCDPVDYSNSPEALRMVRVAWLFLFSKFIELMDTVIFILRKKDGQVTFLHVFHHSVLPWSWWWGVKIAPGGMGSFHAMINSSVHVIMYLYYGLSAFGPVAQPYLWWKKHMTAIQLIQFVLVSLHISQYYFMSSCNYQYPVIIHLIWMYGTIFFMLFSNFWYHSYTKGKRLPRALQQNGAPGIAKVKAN

Mus musculus [2] = experiment: Reduction in C26:0/C16:0 LPC level in ABCD1 knock out mouse CNS at 1 to 10 mg/kg, po qd measured after 2 months of dosing by LC-MS/MS analysis; assay type: functional, organism-based; conditions: dose 1-10 mg/kg
[3] = Tmax in Beagle dog at 3 mg/kg, po upto 24 hrs by LC/MS/MS analysis; assay type: ADME, organism-based, Canis lupus familiaris; conditions: in vivo
[4] = Tmax in Sprague-Dawley rat at 3 mg/kg, po upto 24 hrs by LC/MS/MS analysis; assay type: ADME, organism-based; conditions: in vivo
[5] = Toxicity in Cynomolgus monkey assessed as acanthosis at 5 to 50 mg/kg/day, po administered for 14 days by microscopic observation analysis; assay type: organism-based, Macaca fascicularis; conditions: in vivo, 336 h, dose 5-50 mg/kg/day, time 14 day
[6] = Unbound brain-to-plasma concentration ratio in rat at 3 mg/kg, po measured after 120 mins; assay type: ADME, organism-based; conditions: brain and plasma, read-out: K(p,uu,brain)
[7] = Reduction in C26:0 LPC level in ABCD1 knock out mouse CNS at 4 mg/kg, po qd measured after 6 months of dosing by LC-MS/MS analysis; assay type: functional; set-up: scale not given: the % may be the effect or the level left; conditions: 4380 h
[8] = biological target: T1, Very long chain fatty acid elongase 1; experiment: Inhibition of ELOVL1 in Het […] 2 patient-derived human lymphocyte assessed as reduction of C26:0 VLCFA synthesis incubated for 48 hrs by cellular assay; assay type: cell-based
HEK-293T = experiment: Reduction in C26:0 LPC level in isogenic wild-type human HEK-293T cells with ELOVL-1 expression in presence of 13C-labeled acetate measured after 48 hrs by mass spectroscopy; assay type: functional, cell-based
Fibroblast [9] = experiment: Reduction in C26:0/C16:0 lysophosphatidyl choline levels in healthy donor-derived human fibroblast incubated for 48 hrs; assay type: functional, cell-based
[10] = biological target: T1, Very long chain fatty acid elongase 1; experiment: Inhibition of ELOVL1 in CALD patient-derived human lymphocyte assessed as reduction of C26:0 VLCFA synthesis incubated for 48 hrs by cellular assay; assay type: cell-based
[11] = biological target: T1, Very long chain fatty acid elongase 1; experiment: Inhibition of ELOVL1 in AMN 2 patient-derived fibroblast assessed as reduction of C26:0 VLCFA synthesis incubated for 48 hrs by cellular assay; assay type: cell-based
[12] = Increase in C20:0/C16:0 LPC level in ABCD1 knock out mouse CNS at 10 mg/kg, po qd measured after 3 months of dosing by LC-MS/MS analysis; assay type: functional; conditions: 2190 h
[13] = Plasma protein binding in dog at 5 uM; assay type: ADME, cell-free, Canis lupus familiaris; conditions: read-out: PPB (converted)
[14] = Reduction in C26:0/C16:0 LPC level in ABCD1 knock out mouse CNS at 8 mg/kg, po qd measured after 6 months of dosing by LC-MS/MS analysis; assay type: functional; set-up: scale not given: the % may be the effect or the level left; conditions: 4380 h
[15] = Clearance in Beagle dog at 0.5 mg/kg, iv upto 48 hrs by LC/MS/MS analysis; assay type: ADME, organism-based, Canis lupus familiaris; conditions: in vivo
[16] = Reduction in C26:0/C16:0 LPC level in wild-type Sprague-Dawley rat at 30 mg/kg, po qd treated for 7 days by LC-MS/MS analysis; assay type: functional; set-up: scale not given: the % may be the effect or the level left; conditions: time 7 day
Mus musculus [17] = experiment: Reduction in C26:0/C16:0 LPC level in normal diet fed ABCD1 knock out mouse blood administered orally qd measured after 14 day by LC-MS/MS analysis; assay type: functional, tissue-based; conditions: route po, DDE = dose-dependent effect
[18] = Toxicity in Cynomolgus monkey assessed as adverse skin lesions at 20 to 50 mg/kg/day, po administered for 14 days; assay type: organism-based, Macaca fascicularis; conditions: in vivo, 336 h, dose 20-50 mg/kg/day, time 14 day
[19] = Toxicity in ABCD1 knock out mouse assessed as noticeable adverse effects at 8 to 32 mg/kg, po qd treated for 6 months; assay type: organism-based; conditions: in vivo, 4380 h, dose 8-32 mg/kg
Mus musculus [20] = experiment: Reduction in C26:0 LPC level in wild-type C57BL/6 mouse blood administered orally qd for 105 days by LC-MS/MS analysis; assay type: functional, tissue-based; conditions: route po, time 105.0 day, DDE = dose-dependent effect
[21] = Reduction in C26:0 LPC level in ABCD1 knock out mouse CNS at 8 mg/kg, po qd measured after 6 months of dosing by LC-MS/MS analysis; assay type: functional; set-up: scale not given: the % may be the effect or the level left; conditions: 4380 h
[22] = Reduction in C26:0 LPC level in Cynomolgus monkey plasma at 15 mg/kg, po qd for 13 weeks by LC-MS/MS analysis; assay type: functional, Macaca fascicularis; set-up: scale not given: the % may be the effect or the level left
[23] = Toxicity in juvenile Sprague-Dawley rat assessed as clonic convulsions 5 to 75 mg/kg/day, po treatment started from postnatal day 75 to 114 days measured after cessation of dosing; assay type: organism-based; conditions: in vivo, dose lower 5 mg/kg/day, time lower 75 day, dose upper 75 mg/kg/day, time upper 114 day
Fibroblast [24] = experiment: Reduction in C26:0 lysophosphatidyl choline synthesis in primary human AMN patient-derived fibroblast incubated for 48 hrs; assay type: functional, cell-based; conditions: DDE = dose-dependent effect
[25] = Toxicity in juvenile Sprague-Dawley rat assessed as ocular inflammation at 5 to 75 mg/kg/day, po treatment started from postnatal day 18 to 114 days; assay type: organism-based; conditions: in vivo, dose lower 5 mg/kg/day, time lower 18 day, dose upper 75 mg/kg/day, time upper 114 day
[26] = Reduction in C26:0/C16:0 acyl-carnitine levels in ABCD1 knock out mouse CNS at 8 mg/kg, po qd measured after 28 days of dosing by LC-MS/MS analysis; assay type: functional; set-up: scale not given: the % may be the effect or the level left; conditions: time 28 day
[27] = Volume of distribution at steady state in Cynomolgus monkey at 1 mg/kg, iv upto 48 hrs by LC/MS/MS analysis; assay type: ADME, organism-based, Macaca fascicularis; conditions: in vivo, read-out: Vdss
[28] = Half life in Cynomolgus monkey at 1 mg/kg, iv upto 48 hrs by LC/MS/MS analysis; assay type: ADME, organism-based, Macaca fascicularis; conditions: in vivo
[29] = AUC (infinity) in Sprague-Dawley rat at 3 mg/kg, po upto 24 hrs by LC/MS/MS analysis; assay type: ADME, organism-based; set-up: dose 3 mg/kg, time < 24 hrs, route po; conditions: in vivo
[30] = Efflux ratio of permeability across […] in dog MDCK-MDR1 transfected cells by LC-MS analysis; assay type: ADME, cell-based, Canis lupus familiaris
[31] = Volume of distribution at steady state in Sprague-Dawley rat at 1 mg/kg, iv upto 48 hrs by LC/MS/MS analysis; assay type: ADME, organism-based; conditions: in vivo, read-out: Vdss
[32] = Cytotoxicity against human THLE-2 cells assessed as decrease in intracellular ATP levels incubated for 72 hrs by Cell Titer-Glo luminescence assay; assay type: toxicity, cell-based; conditions: read-out: TC50
[33] = Clearance in mouse at 1 mg/kg, iv upto 48 hrs by LC/MS/MS analysis; assay type: ADME, organism-based; conditions: in vivo

IC50 [1]: 13 nM
Tmax [3]: 30 min
Tmax [4]: 24 min
Kp uu at 2 h [6]: 1.1
IC50 [8]: 9 nM
IC50 [10]: 15 nM
IC50 [11]: 17 nM
fraction unbound at 5 µM [13]: 0.061
clearance [15]: 30.4 mL/min/kg
Vd [27]: 3 L/kg
half-life [28]: 324 min
AUC [29]: 442 ng·h/mL
Ratio [30]: 1.1
Vd [31]: 4 L/kg
clearance [33]: 10.7 mL/min/kg
Structure (SMILES): O=C(Nc1ccn(-c2ccnc(F)c2)n1)C1(c2ccccc2F)CC1
Activity (Mus musculus [2]): Active
Activity [5]: Toxic
Activity [7]: 57%
Activity (HEK-293T): Active
Activity (Fibroblast [9]): Active
Activity [12]: 38%
Activity [14]: 54%
Activity [16]: 67%
Activity (Mus musculus [17]): Dde
Activity [18]: Toxic
Activity [19]: Non-Toxic
Activity (Mus musculus [20]): Dde
Activity [21]: 49%
Activity [22]: 82%
Activity [23]: Toxic
Activity (Fibroblast [24]): Dde
Activity [25]: Toxic
Activity [26]: 55%
CC50 at 72 h [32]: > 100000 nM
